Source: patent publication US5436229A, “Bisulfite adducts of arginine aldehydes” (Eli Lilly and Company, priority 1994, dated 1995)

Legend:
Assay type in all cases: biochemical
[1] = biological target: human thrombin (Homo sapiens, UniProt P00734); test: Thrombin amidase inhibition (Kass), chromogenic substrate
Experimental: The assay is carried out by mixing 50 μl buffer (0.03M Tris, 0.15M NaCl, pH 7.4) with 25 μl of human thrombin solution (purified human thrombin, Enzyme Research Laboratories, South Bend, Ind., at 8 NIH units/ml) and 25 μl of test compound in a solvent (50% aqueous methanol (v:v)). Then 150 μl of an aqueous solution of the chromogenic substate (at 0.25 mg/ml) are added and the rates of hydrolysis of the substrate are measured by monitoring the reactions at 405 nm for the release of p-nitroaniline. Standard curves are constructed by plotting free thrombin concentration against hydrolysis rate. […] The amount of free inhibitor in each assay is calculated by subtracting the number of moles of bound thrombin from the number of moles of added inhibitor (test compound).
The Kass value is the hypothetical equilibrium constant for the reaction between thrombin and the test compound (I) . [formula]
Kass is calculated for a range of concentrations of test compounds and the mean value reported in units of liter per mole.

[2] = biological target: T1, factor Xa (Homo sapiens, UniProt P00742); test: Serine protease inhibition (Kass), factor Xa
T1 construct: Human factors X, Xa, IXa, XIa, and XIIa are purchased from Enzyme Research Laboratories; purchased Enzyme Research Laboratories, South Bend, Ind
Experimental: (§1) By substantially following the procedures described above for human thrombin, and using other human blood coagulation system serine proteases and using fibrinolytic system serine proteases, with the appropriate chromogenic substrates, identified below, the selectivity of the compounds of the present invention with respect to the coagulation factor serine proteases and to the fibronolytic serine proteases are evaluated as well as their substantial lack of interference with human plasma clot fibrinolysis.
(§2) Human factors X, Xa, IXa, XIa, and XIIa are purchased from Enzyme Research Laboratories, South Bend, Ind.; human urokinase from Leo Pharmaceuticals, Denmark; and recombinant activated Protein C (aPC) is prepared at Eli Lilly and Co. substantially according to U.S. Pat. No. 4,981,952 incorporated by reference herein in its entirety. Chromogenic substrates: N-Benzoyl-Ile-Glu-Gly-Arg-p-nitroanilide (for factor Xa); N-Cbz-D-Arg-Gly-Arg-p-nitroanilide (for factor IXa assay as the factor Xa substrate); Pyroglutamyl-Pro-Arg-p-nitroanilide (for Factor XIa and for aPC); H-D-Pro-Phe-Arg-p-nitroanilide (for factor XIIa); and Pyroglutamyl-Gly-Arg-p-nitroanilide (for urokinase); are purchased from KabiVitrum, Stockholm, Sweden, or from Midwest Biotech, Fishers, Ind. Bovine trypsin is purchased from Worthington Biochemicals, Freehold, N.J., and human plasma kallikrein from Kabi Vitrum, Stockholm, Sweden. Chromogenic substrate H-D-Pro-Phe-Arg-p-nitroanilide for plasma kallikrein is purchased from Kabi Vitrum, Stockholm, Sweden. N-Benzoyl-Phe-Val-Arg-p-nitroanilide, the substrate for human thrombin and for trypsin, is synthesized according to procedures described above for the compounds of the present invention, using known methods of peptide coupling from commercially available reactants, or purchaed from Midwest Biotech, Fishers, Ind.

[3] = biological target: T2, Bovine trypsin (Bos taurus, UniProt P00760); test: Serine protease inhibition (Kass), trypsin
T2 construct: Bovine trypsin is purchased from Worthington Biochemicals; purchased Worthington Biochemicals, Freehold, N.J
T2 sequence (P00760 24-246): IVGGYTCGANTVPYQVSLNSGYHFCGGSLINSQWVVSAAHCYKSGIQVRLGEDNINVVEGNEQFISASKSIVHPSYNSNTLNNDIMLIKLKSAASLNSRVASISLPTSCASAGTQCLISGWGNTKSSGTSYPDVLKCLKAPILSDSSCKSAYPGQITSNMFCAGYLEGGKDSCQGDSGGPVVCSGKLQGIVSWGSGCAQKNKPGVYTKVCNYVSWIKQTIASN
Experimental: as §1, §2

[4] = biological target: T3, Human plasmin (Homo sapiens, UniProt P00747); test: Serine protease inhibition (Kass), plasmin
T3 construct: Human plasmin is purchased from Boehringer Mannheim; purchased Boehringer Mannheim, Indianapolis, Ind
Experimental: as §1
(§3) Human plasmin is purchased from Boehringer Mannheim, Indianapolis, Ind.; nt-PA is purchased as single chain activity reference from American Diagnostica, Greenwich, Conn.; modified-t-PA6 (mt-PA6) is prepared at Eli Lilly and Company by procedure known in the art (See, Burck, et al., J. Biol. Chem., 265, […] (1990). Plasmin chromogenic substrate H-D-Val-Leu-Lys-p-nitroanilide and tissue plasminogen activator (t-PA) substrate H-D-Ile-Pro-Arg-p-nitroanilide are purchased from Kabi Vitrum, Stockholm, Sweden.

[5] = biological target: T4, tissue plasminogen activator (t-PA) (Homo sapiens, UniProt P00750); test: Serine protease inhibition (Kass), t-PA
T4 construct: purchased American Diagnostica, Greenwich, Conn
Experimental: as §1, §3

[6] = tested on: human plasma; test: Human plasma anticoagulation, thrombin time (TT)
Experimental: (§4) Fibrinogen is prepared from in-date ACD human blood as the fraction I-2 according to previous procedures and specifications. Smith, Biochem. […] Coagulation reagents ACTIN, Thromboplastin, and Human plasma are from Baxter Healthcare Corp., Dade Division, Miami, Fla. Bovine thrombin from Parke-Davis (Detroit, Mich.) is used for coagulation assays in plasma. Coagulation assay procedures are as previously described. […] A CoAScreener coagulation instrument (American LABor, Inc.) is used for all coagulation assay measurements. […] The compounds of formula I are added to human or animal plasma over a wide range of concentrations to determine prolongation effects on the APTT, PT, and TT assays. Linear extrapolations are performed to estimate the concentrations required to double the clotting time for each assay.

[7] = tested on: human plasma; test: Human plasma anticoagulation, activated partial thromboplastin time (APTT)
Experimental: as §4

[8] = tested on: human plasma; test: Human plasma anticoagulation, prothrombin time (PT)
Experimental: as §4

T4 sequence (P00750 36-562): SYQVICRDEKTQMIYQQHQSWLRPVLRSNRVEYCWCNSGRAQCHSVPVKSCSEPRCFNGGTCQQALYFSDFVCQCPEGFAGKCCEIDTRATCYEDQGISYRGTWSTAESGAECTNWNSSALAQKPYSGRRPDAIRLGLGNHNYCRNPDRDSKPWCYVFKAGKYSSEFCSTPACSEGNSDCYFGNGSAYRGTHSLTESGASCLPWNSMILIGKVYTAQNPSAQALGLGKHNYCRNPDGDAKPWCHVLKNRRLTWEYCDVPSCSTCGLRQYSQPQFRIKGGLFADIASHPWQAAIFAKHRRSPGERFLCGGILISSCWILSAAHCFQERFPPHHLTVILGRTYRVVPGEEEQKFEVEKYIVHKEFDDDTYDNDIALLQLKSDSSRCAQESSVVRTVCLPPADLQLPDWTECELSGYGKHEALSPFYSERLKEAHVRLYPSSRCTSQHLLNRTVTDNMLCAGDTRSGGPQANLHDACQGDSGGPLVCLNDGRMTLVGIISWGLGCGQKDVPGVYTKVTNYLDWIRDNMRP
T1 sequence (P00742 235-488 limits assumed): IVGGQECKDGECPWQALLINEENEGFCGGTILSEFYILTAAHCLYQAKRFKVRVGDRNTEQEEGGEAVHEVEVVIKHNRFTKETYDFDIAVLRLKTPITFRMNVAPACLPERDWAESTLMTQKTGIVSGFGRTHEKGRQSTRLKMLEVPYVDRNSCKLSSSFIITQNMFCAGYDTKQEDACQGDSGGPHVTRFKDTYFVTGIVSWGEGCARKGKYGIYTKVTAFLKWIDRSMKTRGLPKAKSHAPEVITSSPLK
T1 sequence (P00742 41-179 partner limits assumed): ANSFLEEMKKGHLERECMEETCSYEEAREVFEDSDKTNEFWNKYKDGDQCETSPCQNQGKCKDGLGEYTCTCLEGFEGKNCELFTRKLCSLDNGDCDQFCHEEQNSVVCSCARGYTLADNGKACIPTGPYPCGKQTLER
T3 sequence (P00747 581-810 limits assumed): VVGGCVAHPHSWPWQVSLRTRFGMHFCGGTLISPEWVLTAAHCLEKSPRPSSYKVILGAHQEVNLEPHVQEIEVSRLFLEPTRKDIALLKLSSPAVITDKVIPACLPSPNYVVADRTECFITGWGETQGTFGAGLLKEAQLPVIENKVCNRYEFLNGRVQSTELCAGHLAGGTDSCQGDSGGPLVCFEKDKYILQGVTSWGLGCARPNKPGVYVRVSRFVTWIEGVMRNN
T3 sequence (P00747 97-580 partner limits assumed): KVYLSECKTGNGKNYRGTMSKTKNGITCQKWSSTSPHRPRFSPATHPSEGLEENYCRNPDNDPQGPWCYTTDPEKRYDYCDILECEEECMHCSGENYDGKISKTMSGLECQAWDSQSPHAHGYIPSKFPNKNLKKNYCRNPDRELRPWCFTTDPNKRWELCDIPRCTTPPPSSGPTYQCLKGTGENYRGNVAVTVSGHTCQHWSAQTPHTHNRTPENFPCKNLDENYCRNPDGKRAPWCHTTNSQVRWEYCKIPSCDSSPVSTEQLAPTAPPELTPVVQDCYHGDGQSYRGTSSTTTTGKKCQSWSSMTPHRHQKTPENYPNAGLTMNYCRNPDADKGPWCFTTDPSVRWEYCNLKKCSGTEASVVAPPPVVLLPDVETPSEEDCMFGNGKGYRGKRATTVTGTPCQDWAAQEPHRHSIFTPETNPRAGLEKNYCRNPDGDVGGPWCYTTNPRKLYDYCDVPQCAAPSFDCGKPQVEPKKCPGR

| SMILES | Kass Human Thrombin [1] [L/mol × 10^6] | Kass Xa [2] [L/mol × 10^6] | Kass Trypsin [3] [L/mol × 10^6] | Kass Plasmin [4] [L/mol × 10^6] | Kass t-PA [5] [L/mol × 10^6] | 2 × Clotting time TT [6] | 2 × Clotting time APTT [7] | 2 × Clotting time PT [8] |
| --- | --- | --- | --- | --- | --- | --- | --- | --- |
| Cl.Cn1c(C(=O)NC2(C(=O)N3CCC[C@H]3C(=O)N[C@H](C=O)CCCNC(=N)N)CCCCC2)cc2ccccc21 [Example 32, 1-(1-methylindolyl-2-carbonylamino)cyclohexoyl-L-prolinyl-L-arginine aldehyde hydrochloride] | 5.7 | 0.024 | 0.45 | 0.0071 | 0.0011 | 1,000 ng/mL | 11,000 ng/mL | 9,200 ng/mL |
| CCOC(=O)N[C@@H](Cc1ccccc1)C(=O)N1CCC[C@@]1(C)C(=O)N[C@H](C=O)CCCNC(=N)N.Cl [Example 29, N-ethoxycarbonyl-phenylalanyl(αmethyl)-L-prolinyl-L-arginine aldehyde hydrochloride] | 5.0 | 0.025 | 1.7 | 0.020 | 0.00072 | 190 ng/mL | 5,400 ng/mL | 6,100 ng/mL |
| CCCC(Cc1ccccc1)(NC(=O)OCC)C(=O)N1CCC[C@H]1C(=O)N[C@H](C=O)CCCNC(=N)N.Cl (stereo partly drawn) [Example 38, N-ethoxycarbonylphenylalanyl(αn-propyl)-L-prolinyl-L-arginine aldehyde hydrochloride] | 38 | 0.077 | 7.3 | 0.074 | < 0.001 | 98 ng/mL | 2,700 ng/mL | 2,200 ng/mL |
| Cl.Cl.N=C(N)NCCC[C@@H](C=O)NC(=O)[C@@H]1CCCN1C(=O)[C@@]1(Cc2ccccc2)CCCN1.O.O [Example 24, D-Prolinyl (αbenzyl)-L-Prolinyl-L-arginine aldehyde, dihydrochloride dihydrate] | 12 | 0.13 | 14 | 0.31 | 0.0034 | 160 ng/mL | 2,100 ng/mL | 3,600 ng/mL |
| CCC[C@](Cc1ccccc1)(NC(=O)OCC)C(=O)N1CCC[C@H]1C(=O)N[C@H](C=O)CCCNC(=N)N.Cl [Example 37] | 47 | 0.030 | 4.9 | 0.12 | < 0.001 | 71 ng/mL | 4,100 ng/mL | 2,800 ng/mL |
| Cl.N=C(N)NCCC[C@@H](C=O)NC(=O)[C@@H]1CCCN1C(=O)[C@@H](CC1CCCCC1)NC(=O)c1cc2ccccc2cn1 [Example 50, N-(isoquinolinyl-2-carbonyl)-D-cyclohexylalanyl-L-Prolinyl-L-Arginine Aldehyde Hydrochloride] | 200 | 0.83 | 2.5 | 2.5 | 0.088 | 97 ng/mL | 1,400 ng/mL | 2,700 ng/mL |
| Cc1noc(C)c1S(=O)(=O)N[C@H](Cc1ccccc1)C(=O)N1CCC[C@H]1C(=O)N[C@H](C=O)CCCNC(=N)N.Cl [Example 60, N-(3,5-dimethyl-4-isoxazolylsulfonyl)-D-phenylalanyl-L-Prolinyl-L-Arginine Aldehyde Hydrochloride] | 260 | 11 | 200 | 18 | 2.7 | 33 ng/mL | 430 ng/mL | 1,300 ng/mL |
| CCCN(CCC)S(=O)(=O)c1ccc(C(=O)N[C@H](Cc2ccccc2)C(=O)N2CCC[C@H]2C(=O)N[C@H](C=O)CCCNC(=N)N)cc1.Cl [Example 73, N-(4-di-n-propylaminosulfonylbenzoyl)-D-phenylalanyl-L-Prolinyl-L-Arginine Aldehyde Hydrochloride] | 43 | 0.32 | 15 | 0.86 | 0.62 | 150 ng/mL | 3,500 ng/mL | 4,800 ng/mL |
| CCOC(=O)N[C@H](Cc1ccccc1)C(=O)N1CCC[C@@]1(C)C(=O)N[C@H](C=O)CCCNC(=N)N.Cl [Example 27, N-ethoxycarbonyl-D-Phenylalanyl(α-methyl)-L-prolinyl-L-arginine aldehyde hydrochloride] | 75 | 0.044 | 2.4 | 0.059 | 0.00079 | 48 ng/mL | 2,500 ng/mL | 2,200 ng/mL |
| Cl.N=C(N)NCCC[C@@H](C=O)NC(=O)[C@@H]1CCCN1C(=O)[C@@H](Cc1ccccc1)NC(=O)C1CCCCC1 [Example 71, N-(cylohexoyl)-D-phenylalanyl-L-Prolinyl-L-Arginine Aldehyde Hydrochloride] | 20 | 0.064 | 5.9 | 0.24 | 0.26 | 63 ng/mL | 1,300 ng/mL | 1,800 ng/mL |
| Cl.Cl.N=C(N)NCCC[C@@H](C=O)NC(=O)[C@@H]1CCCN1C(=O)C1(Cc2ccccc2)CCN1 (stereo partly shown) [Example 26] | 75 | 0.12 | 17 | 0.17 | 0.0028 | 42 ng/mL | 1,400 ng/mL | 1,100 ng/mL |
